We go through three molecules from publication PMC3479967 (Evidence-based Complementary and Alternative Medicine : eCAM, 2012).

Data set [1] can be described thus: Calculation of possible maximum concentrations in gut lumen. The note with it: calculated, after a single oral administration of Epimedium pubescens decoction. Also on record: species or system human. An excerpt:
The reported V L was 1.65 L/70 kg. […] Here we arbitrarily assumed the ratio in rat equaled to that in human blood, and the values of their oral bioavailability were consistent.

Data set [2] addresses T1, UGT1A8 (Homo sapiens, UniProt Q9HAW9).
T1 sequence (Q9HAW9 26-530): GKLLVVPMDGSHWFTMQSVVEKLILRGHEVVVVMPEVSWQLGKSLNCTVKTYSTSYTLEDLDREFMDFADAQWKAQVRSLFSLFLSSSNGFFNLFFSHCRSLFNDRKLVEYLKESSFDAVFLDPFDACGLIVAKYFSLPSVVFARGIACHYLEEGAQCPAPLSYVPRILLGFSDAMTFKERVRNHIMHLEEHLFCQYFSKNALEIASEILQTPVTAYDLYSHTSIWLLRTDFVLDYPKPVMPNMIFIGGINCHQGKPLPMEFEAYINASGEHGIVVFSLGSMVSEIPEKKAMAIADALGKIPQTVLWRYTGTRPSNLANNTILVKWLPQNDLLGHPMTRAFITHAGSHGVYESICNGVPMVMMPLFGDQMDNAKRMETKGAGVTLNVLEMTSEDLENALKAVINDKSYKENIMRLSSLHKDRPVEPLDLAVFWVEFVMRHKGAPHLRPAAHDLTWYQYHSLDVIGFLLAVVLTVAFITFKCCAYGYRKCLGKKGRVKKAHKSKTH
Nature of the data set: Inhibition of recombinant UGT1A8 activity (4-MU glucuronidation). The method, then:
(§1) A panel of recombinant human UGT supersomes (UGT1A1, UGT1A3, UGT1A4, UGT1A6, UGT1A7, UGT1A8, UGT1A9, UGT1A10, UGT2B4, UGT2B7, UGT2B15, and UGT2B17) expressed in baculovirus-infected insect cells were purchased from BD Gentest Corp. (Woburn, MA, USA).
(§2) 4-MU, a nonselective substrate of UGTs, was used as probe substrate for all UGTs except UGT1A4. Incubations with each individual enzyme were conducted using conditions previously described. There was a 5 min preincubation step at 37°C before the reaction was started by addition of UDPGA. The incubation mixtures were then centrifuged at 20,500 ×g for 15 min to obtain the supernatant. Aliquots (20 μL) were then analyzed by HPLC. The HPLC system (SHIMADZU, Kyoto, Japan) consisted of an SCL-10A system controller, two LC-10AT pumps, a SIL-10A auto injector, and a SPD-10AVP UV detector. Chromatographic separation was achieved using a Kromasil ODS column (4.6 × 150 mm I.D., 5 μm particle size) at a flow rate of 1 mL/min and UV detection at 316 nm. The mobile phase consisted of 10 mM KH2PO4, pH 2.7 (A) and acetonitrile (B). The following gradient was applied at a flow rate of 1 mL/min: 0–4 min 80% A and 20% B, 4.1–8 min 50% A and 50% B, 8.1–12 min, 30% A and 70% B. All experiments were performed in two independent experiments in duplicate.
(§3) A typical incubation mixture contained recombinant human UGTs, 5 mM MgCl2, 5 mM UDPGA, 50 μg/mg protein alamethicin, 50 mM Tris-HCl buffer (pH 7.4), and various probe substrates of UGTs in the absence or presence of different concentrations of inhibitors. […] The final concentration of DMSO in the incubation system was 1% (v/v). […]
(§4) Inhibition data from experiments were graphically represented by Dixon plots. K i values were calculated by nonlinear regression using the equations for competitive inhibition (1), noncompetitive inhibition (2), or mixed inhibition (3), [22] […] The type of inhibition was determined from the enzyme inhibition models. Goodness of fit to kinetic and inhibition models was assessed from the F statistic, r ^2 values, parameter standard error estimates, and 95% confidence intervals. […]

Data set [3] concerns the target T2, UGT1A6 (Homo sapiens, UniProt P19224).
T2 sequence (P19224 27-532): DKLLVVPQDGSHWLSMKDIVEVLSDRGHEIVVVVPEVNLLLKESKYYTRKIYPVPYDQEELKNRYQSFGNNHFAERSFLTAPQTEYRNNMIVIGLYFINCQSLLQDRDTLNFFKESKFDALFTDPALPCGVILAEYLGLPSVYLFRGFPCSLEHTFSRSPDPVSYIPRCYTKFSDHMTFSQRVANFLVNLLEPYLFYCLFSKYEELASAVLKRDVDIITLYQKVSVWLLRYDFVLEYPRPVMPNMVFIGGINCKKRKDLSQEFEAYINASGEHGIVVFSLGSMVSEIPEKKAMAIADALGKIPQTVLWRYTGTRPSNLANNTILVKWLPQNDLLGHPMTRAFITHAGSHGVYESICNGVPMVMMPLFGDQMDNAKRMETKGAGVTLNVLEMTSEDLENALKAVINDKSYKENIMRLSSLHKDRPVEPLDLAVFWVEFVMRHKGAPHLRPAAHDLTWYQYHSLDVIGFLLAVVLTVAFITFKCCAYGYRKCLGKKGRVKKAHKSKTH
The experiment in a line: Inhibition of recombinant UGT1A6 activity (4-MU glucuronidation). The method, then: as §1, §2, §3, §4

Structures are written as SMILES.

Regarding `COc1ccc(-c2oc3c(CC=C(C)C)c(O)cc(O)c3c(=O)c2O)cc1` [Icaritin], the “Possible maximum concentration in human gut lumen” value (“Possible maximum concentration” below) in data set [1] was around 3.8 µM. The IC50 in data set [2] and in data set [3] was above 100 µM each time.
Take `COc1ccc(-c2oc3c(CC=C(C)C)c(O[C@@H]4O[C@H](CO)[C@@H](O)[C@H](O)[C@H]4O)cc(O)c3c(=O)c2O[C@@H]2O[C@@H](C)[C@H](O)[C@@H](O)[C@H]2O)cc1` [Icariin]: the “Possible maximum concentration” value in data set [1] is on record as “about 9.9 μM”. The IC50 in data set [2] and in data set [3] was above 100 µM throughout.
As to `COc1ccc(-c2oc3c(CC=C(C)C)c(O[C@@H]4O[C@H](CO)[C@@H](O)[C@H](O)[C@H]4O)cc(O)c3c(=O)c2O)cc1` [Icariside I], the “Possible maximum concentration” value in data set [1] was around 0.2 µM. In addition, the IC50 in data set [2] and in data set [3] was above 100 µM throughout.

A word on the IC50: it is the concentration needed to halve the response being measured.
